According to patent US10168342B2, “Lipid probes and uses thereof” (THE SCRIPPS RESEARCH INSTITUTE, priority 2015, dated 2019):
Where two headings read alike, the source gives them in different places.

Tests used:
[1] = biological target: T1, AEA-DA lipid probe targets in Neuro2a cells (Mus musculus, UniProt Q99JH8)
T1 sequence (Q99JH8 1-212): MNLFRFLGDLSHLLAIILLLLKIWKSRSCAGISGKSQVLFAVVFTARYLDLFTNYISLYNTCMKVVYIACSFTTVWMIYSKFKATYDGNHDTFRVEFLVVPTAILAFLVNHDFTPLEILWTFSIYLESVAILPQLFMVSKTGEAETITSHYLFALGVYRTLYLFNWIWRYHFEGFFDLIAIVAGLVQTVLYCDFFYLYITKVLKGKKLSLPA

[2] = biological target: T2, AEA-DA lipid probe targets in Neuro2a cells (Mus musculus, UniProt Q5XKN4)
T2 sequence (Q5XKN4 1-183): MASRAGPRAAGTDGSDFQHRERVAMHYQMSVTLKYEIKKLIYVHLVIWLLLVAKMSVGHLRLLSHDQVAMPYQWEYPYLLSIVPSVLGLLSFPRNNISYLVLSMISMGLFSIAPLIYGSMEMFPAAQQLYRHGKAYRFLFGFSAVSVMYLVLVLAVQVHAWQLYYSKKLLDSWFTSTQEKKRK

[3] = biological target: T3, AEA-DA lipid probe targets in Neuro2a cells (Mus musculus, UniProt Q8BXV2)
T3 sequence (Q8BXV2 1-253): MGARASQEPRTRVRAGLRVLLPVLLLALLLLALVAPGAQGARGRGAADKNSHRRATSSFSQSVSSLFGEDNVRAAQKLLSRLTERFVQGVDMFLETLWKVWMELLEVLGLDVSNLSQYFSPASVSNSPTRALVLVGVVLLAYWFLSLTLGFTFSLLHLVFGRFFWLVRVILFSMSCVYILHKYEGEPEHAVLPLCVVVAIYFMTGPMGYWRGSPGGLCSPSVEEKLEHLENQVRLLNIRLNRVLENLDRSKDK

[4] = biological target: AEA-DA lipid probe targets in Neuro2a cells (Mus musculus, UniProt Q8VDQ1)
Sequence of AEA-DA lipid probe targets in Neuro2a cells (Mus musculus, UniProt Q8VDQ1) (Q8VDQ1 whole entry): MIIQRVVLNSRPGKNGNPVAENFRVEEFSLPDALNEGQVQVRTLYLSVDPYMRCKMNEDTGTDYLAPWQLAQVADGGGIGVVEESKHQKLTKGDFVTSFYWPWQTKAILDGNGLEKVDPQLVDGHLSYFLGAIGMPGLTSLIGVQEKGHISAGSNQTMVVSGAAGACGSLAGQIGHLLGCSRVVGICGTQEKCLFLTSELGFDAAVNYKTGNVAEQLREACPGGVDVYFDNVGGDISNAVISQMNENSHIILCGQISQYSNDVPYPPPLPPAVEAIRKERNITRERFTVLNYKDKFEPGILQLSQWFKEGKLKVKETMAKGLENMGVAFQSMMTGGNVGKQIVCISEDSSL

[5] = biological target: AEA-DA lipid probe targets in Neuro2a cells (Mus musculus, UniProt P52019); settings: for SILAC ratio, SQLE (Q14534): Neuro2a cells, AEA-DA probe
Sequence of AEA-DA lipid probe targets in Neuro2a cells (Mus musculus, UniProt P52019) (P52019 whole entry): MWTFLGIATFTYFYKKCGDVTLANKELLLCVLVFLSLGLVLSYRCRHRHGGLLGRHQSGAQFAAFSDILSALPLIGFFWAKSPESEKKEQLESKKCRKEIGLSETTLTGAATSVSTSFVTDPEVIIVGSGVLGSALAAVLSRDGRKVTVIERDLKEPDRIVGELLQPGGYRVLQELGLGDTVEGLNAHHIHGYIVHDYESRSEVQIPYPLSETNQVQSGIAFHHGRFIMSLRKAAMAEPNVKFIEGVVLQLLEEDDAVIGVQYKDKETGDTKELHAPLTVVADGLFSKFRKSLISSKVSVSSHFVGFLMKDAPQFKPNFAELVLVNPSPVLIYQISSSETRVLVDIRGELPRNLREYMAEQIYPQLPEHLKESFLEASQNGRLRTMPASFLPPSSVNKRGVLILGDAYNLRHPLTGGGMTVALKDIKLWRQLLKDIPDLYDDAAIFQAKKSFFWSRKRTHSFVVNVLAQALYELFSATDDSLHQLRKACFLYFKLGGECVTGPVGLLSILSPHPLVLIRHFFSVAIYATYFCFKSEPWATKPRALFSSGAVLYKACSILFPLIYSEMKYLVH

[6] = biological target: T4, AEA-DA lipid probe targets in Neuro2a cells (Mus musculus, UniProt Q9CR67)
T4 sequence (Q9CR67 1-247): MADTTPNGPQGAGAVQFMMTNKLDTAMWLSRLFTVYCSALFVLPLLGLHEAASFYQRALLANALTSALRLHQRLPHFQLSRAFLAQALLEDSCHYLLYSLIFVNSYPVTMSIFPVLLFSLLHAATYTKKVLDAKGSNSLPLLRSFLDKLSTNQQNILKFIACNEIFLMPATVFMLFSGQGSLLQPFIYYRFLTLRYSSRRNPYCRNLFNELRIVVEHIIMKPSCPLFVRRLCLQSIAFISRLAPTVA

[7] = biological target: T5, AEA-DA lipid probe targets in Neuro2a cells (Mus musculus, UniProt Q91YQ5)
T5 sequence (Q91YQ5 26-608): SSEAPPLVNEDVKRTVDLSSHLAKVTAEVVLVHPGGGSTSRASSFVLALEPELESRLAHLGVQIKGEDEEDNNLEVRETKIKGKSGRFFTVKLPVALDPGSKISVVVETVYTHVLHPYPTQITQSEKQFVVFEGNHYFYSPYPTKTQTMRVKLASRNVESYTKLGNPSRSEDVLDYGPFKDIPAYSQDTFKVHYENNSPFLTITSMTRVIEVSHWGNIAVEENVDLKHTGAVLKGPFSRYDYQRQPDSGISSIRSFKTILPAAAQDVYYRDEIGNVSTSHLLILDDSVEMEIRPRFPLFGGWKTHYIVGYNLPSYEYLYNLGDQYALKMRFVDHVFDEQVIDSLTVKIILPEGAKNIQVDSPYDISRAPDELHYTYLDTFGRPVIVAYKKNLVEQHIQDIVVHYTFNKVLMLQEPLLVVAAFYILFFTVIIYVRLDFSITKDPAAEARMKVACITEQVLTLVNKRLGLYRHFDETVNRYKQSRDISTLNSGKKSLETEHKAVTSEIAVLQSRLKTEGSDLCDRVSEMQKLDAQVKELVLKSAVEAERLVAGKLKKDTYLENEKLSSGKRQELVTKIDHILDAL

[8] = biological target: T6, AEA-DA lipid probe targets in Neuro2a cells (Mus musculus, UniProt Q91ZN5)
T6 sequence (Q91ZN5 1-431): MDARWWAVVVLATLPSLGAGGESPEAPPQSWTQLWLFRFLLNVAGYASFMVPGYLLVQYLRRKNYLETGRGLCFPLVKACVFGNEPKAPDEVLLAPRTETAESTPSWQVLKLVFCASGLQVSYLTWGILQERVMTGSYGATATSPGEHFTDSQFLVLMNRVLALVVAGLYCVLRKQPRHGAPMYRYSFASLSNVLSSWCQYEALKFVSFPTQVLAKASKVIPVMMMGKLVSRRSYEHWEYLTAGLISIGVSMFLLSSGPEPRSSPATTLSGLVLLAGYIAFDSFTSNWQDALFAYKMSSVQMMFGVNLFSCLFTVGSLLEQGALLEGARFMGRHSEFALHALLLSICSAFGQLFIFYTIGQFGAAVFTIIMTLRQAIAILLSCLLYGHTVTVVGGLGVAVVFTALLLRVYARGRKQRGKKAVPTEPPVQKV

[9] = biological target: AEA-DA lipid probe targets in Neuro2a cells (Mus musculus, UniProt P08113)
Sequence of AEA-DA lipid probe targets in Neuro2a cells (Mus musculus, UniProt P08113) (P08113 22-802): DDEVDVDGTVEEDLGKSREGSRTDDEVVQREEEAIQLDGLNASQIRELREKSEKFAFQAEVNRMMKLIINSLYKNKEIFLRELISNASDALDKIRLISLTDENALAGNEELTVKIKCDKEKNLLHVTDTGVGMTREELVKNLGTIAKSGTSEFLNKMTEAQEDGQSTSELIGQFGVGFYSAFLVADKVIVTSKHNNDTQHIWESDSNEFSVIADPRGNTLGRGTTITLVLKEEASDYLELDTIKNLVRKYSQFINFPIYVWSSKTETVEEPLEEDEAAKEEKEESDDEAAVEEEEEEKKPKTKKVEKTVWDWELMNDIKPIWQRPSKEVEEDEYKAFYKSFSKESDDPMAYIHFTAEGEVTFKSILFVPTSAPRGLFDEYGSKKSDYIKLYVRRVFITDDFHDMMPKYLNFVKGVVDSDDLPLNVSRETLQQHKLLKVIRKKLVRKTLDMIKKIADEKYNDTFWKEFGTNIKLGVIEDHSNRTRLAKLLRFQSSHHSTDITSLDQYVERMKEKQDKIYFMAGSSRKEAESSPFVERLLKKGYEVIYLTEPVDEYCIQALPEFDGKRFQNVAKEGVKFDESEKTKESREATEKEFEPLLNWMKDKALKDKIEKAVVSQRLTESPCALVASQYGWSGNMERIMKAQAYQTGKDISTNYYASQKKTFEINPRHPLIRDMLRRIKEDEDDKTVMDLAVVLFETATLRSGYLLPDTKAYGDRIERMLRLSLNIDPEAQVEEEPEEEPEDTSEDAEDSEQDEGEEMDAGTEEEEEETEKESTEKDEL

[10] = biological target: AEA-DA lipid probe targets in Neuro2a cells (Mus musculus, UniProt Q9Z0V7)
Sequence of AEA-DA lipid probe targets in Neuro2a cells (Mus musculus, UniProt Q9Z0V7) (Q9Z0V7 whole entry): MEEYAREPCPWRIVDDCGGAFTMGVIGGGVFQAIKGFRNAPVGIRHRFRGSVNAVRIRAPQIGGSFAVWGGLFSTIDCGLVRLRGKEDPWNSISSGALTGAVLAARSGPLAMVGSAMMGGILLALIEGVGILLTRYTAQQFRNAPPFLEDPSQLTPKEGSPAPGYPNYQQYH

[11] = biological target: AEA-DA lipid probe targets in Neuro2a cells (Mus musculus, UniProt P62821)
Sequence of AEA-DA lipid probe targets in Neuro2a cells (Mus musculus, UniProt P62821) (P62821 whole entry): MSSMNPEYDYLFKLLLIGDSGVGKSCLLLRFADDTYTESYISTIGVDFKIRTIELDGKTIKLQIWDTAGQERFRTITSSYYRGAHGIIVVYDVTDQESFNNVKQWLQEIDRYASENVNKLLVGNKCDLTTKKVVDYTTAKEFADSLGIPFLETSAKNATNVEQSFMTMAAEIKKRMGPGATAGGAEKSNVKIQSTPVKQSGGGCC

## CCCCC/C=C\C/C=C\C/C=C\C/C=C\CCCC(=O)NCCO [AEA, anandamide, reference compound]
[1]; competitor 200 μM
  SILAC ratio Kdelr1: 1.2
[2]; competitor 200 μM
  SILAC ratio, Jagn1: 2.1
[3]; competitor 200 μM
  SILAC ratio, Bri3bp: 2.0
[4]; competitor 200 μM
  SILAC ratio, Ptgr2: 8.7
[5]; competitor 200 μM
  SILAC ratio, SQLE (Q14534): 1.9
  SILAC ratio Sqle: 1.9
[6]; competitor 200 μM
  SILAC ratio, Tmem33: 1.8
[7]; competitor 200 μM
  SILAC ratio Rpn1: 1.6
[8]; competitor 200 μM
  SILAC ratio, Slc35b2: 1.9
[9]; competitor 200 μM
  SILAC ratio Hsp90b1: 1.1
[10]; competitor 200 μM
  SILAC ratio, Timm17b: 1.6
[11]; competitor 200 μM
  SILAC ratio Rab1A: 1.2

## O=C(/C=C/c1cccnc1)NCCCCC1CCN(C(=O)c2ccccc2)CC1 [FK-866, reference compound]
[1]; competitor 25 μM
  SILAC ratio Kdelr1: 1.1
[2]; competitor 25 μM
  SILAC ratio, Jagn1: 1.1
[3]; competitor 25 μM
  SILAC ratio, Bri3bp: 1.1
[4]; competitor 25 μM
  SILAC ratio, Ptgr2: 5.2
[5]; competitor 25 μM
  SILAC ratio, SQLE (Q14534): 1.1
  SILAC ratio Sqle: 1.1
[6]; competitor 25 μM
  SILAC ratio, Tmem33: 1.2
[7]; competitor 25 μM
  SILAC ratio Rpn1: 1.2
[8]; competitor 25 μM
  SILAC ratio, Slc35b2: 1.0
[9]; competitor 25 μM
  SILAC ratio Hsp90b1: 1.2
[10]; competitor 25 μM
  SILAC ratio, Timm17b: 1.2
[11]; competitor 25 μM
  SILAC ratio Rab1A: 1.1

## CN1CCN(C(=O)c2c(-c3ccccc3)c3cc([N+](=O)[O-])ccc3n2C)CC1 [KML110, (1-Methyl-5-nitro-3-phenyl-1H-indol-2-yl)(4-methylpiperazin-1-yl)methanone]
[1]; competitor 25 μM
  SILAC ratio Kdelr1: 1.1
[2]; competitor 25 μM
  SILAC ratio, Jagn1: 1.5
[3]; competitor 25 μM
  SILAC ratio, Bri3bp: 1.6
[4]; competitor 25 μM
  SILAC ratio, Ptgr2: 1.5
[5]; competitor 25 μM
  SILAC ratio Sqle: 1.3
[6]; competitor 25 μM
  SILAC ratio, Tmem33: 1.4
[7]; competitor 25 μM
  SILAC ratio Rpn1: 1.2
[8]; competitor 25 μM
  SILAC ratio, Slc35b2: 1.3
[9]; competitor 25 μM
  SILAC ratio Hsp90b1: 1.4
[10]; competitor 25 μM
  SILAC ratio, Timm17b: 1.8
[11]; competitor 25 μM
  SILAC ratio Rab1A: 1.3

## CN1CCN(C(=O)c2[nH]c3ccc([N+](=O)[O-])cc3c2-c2ccccc2)CC1 [MJN228, (4-Methylpiperazin-1-yl)(5-nitro-3-phenyl-1H-indol-2-yl)methanone]
[1]; competitor 10 μM
  SILAC ratio Kdelr1: 1.1
[1]; competitor 25 μM
  SILAC ratio Kdelr1: 1.2
[1]; competitor 50 μM
  SILAC ratio Kdelr1: 1.5
[1]; competitor 100 μM
  SILAC ratio Kdelr1: 1.5
[2]; competitor 10 μM
  SILAC ratio, Jagn1: 1.2
[2]; competitor 25 μM
  SILAC ratio, Jagn1: 1.4
[2]; competitor 50 μM
  SILAC ratio, Jagn1: 1.6
[2]; competitor 100 μM
  SILAC ratio, Jagn1: 2.1
[3]; competitor 10 μM
  SILAC ratio, Bri3bp: 1.3
[3]; competitor 25 μM
  SILAC ratio, Bri3bp: 1.5
[3]; competitor 50 μM
  SILAC ratio, Bri3bp: 1.4
[3]; competitor 100 μM
  SILAC ratio, Bri3bp: 2.1
[4]; competitor 10 μM
  SILAC ratio, Ptgr2: 1.2
[4]; competitor 25 μM
  SILAC ratio, Ptgr2: 1.2
[4]; competitor 50 μM
  SILAC ratio, Ptgr2: 1.0
[4]; competitor 100 μM
  SILAC ratio, Ptgr2: 1.5
[5]; competitor 25 μM
  SILAC ratio, SQLE (Q14534): 1.5
  SILAC ratio Sqle: 1.5
[5]; competitor 10 μM
  SILAC ratio Sqle: 1.3
[5]; competitor 100 μM
  SILAC ratio Sqle: 2.1
[6]; competitor 10 μM
  SILAC ratio, Tmem33: 1.3
[6]; competitor 25 μM
  SILAC ratio, Tmem33: 1.5
[6]; competitor 50 μM
  SILAC ratio, Tmem33: 1.5
[6]; competitor 100 μM
  SILAC ratio, Tmem33: 2.0
[7]; competitor 10 μM
  SILAC ratio Rpn1: 1.3
[7]; competitor 25 μM
  SILAC ratio Rpn1: 1.4
[7]; competitor 50 μM
  SILAC ratio Rpn1: 1.2
[7]; competitor 100 μM
  SILAC ratio Rpn1: 1.6
[8]; competitor 10 μM
  SILAC ratio, Slc35b2: 1.0
[8]; competitor 25 μM
  SILAC ratio, Slc35b2: 1.1
[8]; competitor 50 μM
  SILAC ratio, Slc35b2: 1.6
[8]; competitor 100 μM
  SILAC ratio, Slc35b2: 1.2
[9]; competitor 10 μM
  SILAC ratio Hsp90b1: 1.3
[9]; competitor 25 μM
  SILAC ratio Hsp90b1: 1.3
[9]; competitor 50 μM
  SILAC ratio Hsp90b1: 1.5
[9]; competitor 100 μM
  SILAC ratio Hsp90b1: 1.4
[10]; competitor 10 μM
  SILAC ratio, Timm17b: 1.3
[10]; competitor 25 μM
  SILAC ratio, Timm17b: 1.5
[10]; competitor 50 μM
  SILAC ratio, Timm17b: 2.2
[10]; competitor 100 μM
  SILAC ratio, Timm17b: 3.6
[11]; competitor 10 μM
  SILAC ratio Rab1A: 1.1
[11]; competitor 25 μM
  SILAC ratio Rab1A: 1.3
[11]; competitor 50 μM
  SILAC ratio Rab1A: 1.3
[11]; competitor 100 μM
  SILAC ratio Rab1A: 1.3

## C=CCN(C)CCCCCCOc1ccc(C(=O)c2ccc(Br)cc2)c(F)c1 [Ro 48-8071, reference compound]
[1]; competitor 25 μM
  SILAC ratio Kdelr1: 1.0
[2]; competitor 25 μM
  SILAC ratio, Jagn1: 1.0
[3]; competitor 25 μM
  SILAC ratio, Bri3bp: 1.1
[4]; competitor 25 μM
  SILAC ratio, Ptgr2: 1.1
[5]; competitor 25 μM
  SILAC ratio, SQLE (Q14534): 1.0
  SILAC ratio Sqle: 1.0
[6]; competitor 25 μM
  SILAC ratio, Tmem33: 1.1
[7]; competitor 25 μM
  SILAC ratio Rpn1: 0.9
[8]; competitor 25 μM
  SILAC ratio, Slc35b2: 0.9
[9]; competitor 25 μM
  SILAC ratio Hsp90b1: 0.9
[10]; competitor 25 μM
  SILAC ratio, Timm17b: 2.8
[11]; competitor 25 μM
  SILAC ratio Rab1A: 1.0
